From patent US5244916A, “Inhibition of respiratory burst using posttranslational modification inhibitors” (The Scripps Research Institute, priority 1992, dated 1993)
Entries after “also recorded” stand apart in the source; their conditions may differ.

Experiments:
Format in all cases: cell-based
[1] = system: HL-60 cells (NADPH oxidase / respiratory burst); assay: O2- formation by DMSO-differentiated HL-60 cells, PMA-stimulated; details: various concentrations
Procedure: HL-60 cells were maintained in stationary culture in RPMI 1640 medium (Gibco, Grand Island, NY) containing 10% fetal bovine serum at 37° C in an atmosphere of 95 air and 5% CO2. The cells (about 8×10^5 /ml) were differentiated into neutrophil-like cells by treatment with 1.3% DMSO for six days (Harris, et al., J. Leukocyte Biol. 37: 407-422 (1985)). The cells were treated with the indicated levels of compactin or lovastatin by addition of a 1,000-fold concentrated stock solution to the appropriate concentration on day 4 of differentiation. […] In studies of the protective effect of mevalonic acid, the compound was added as the mevalonolactone (Sigma Chemical Co., St. Louis, MO) at a concentration of 1 mM to the cell culture on days 4 to 6. […]
O2 --formation by HL-60 cells was assessed by the SOD-sensitive reduction of cytochrome c. […] Cytochrome c reduction at 550nm was continuously monitored and maximal rate and extent of the reaction calculated.

[2] = system: HL-60 cells (NADPH oxidase / respiratory burst); assay: Prevention of compactin-inhibition of FMLP-stimulated O2- formation in HL-60 cells by mevalonic acid and other supplements
Procedure: HL-60 cells were maintained in stationary culture in RPMI 1640 medium (Gibco, Grand Island, NY) containing 10% fetal bovine serum at 37° C in an atmosphere of 95 air and 5% CO2. The cells (about 8×10^5 /ml) were differentiated into neutrophil-like cells by treatment with 1.3% DMSO for six days (Harris, et al., J. Leukocyte Biol. 37: 407-422 (1985)). The cells were treated with the indicated levels of compactin or lovastatin by addition of a 1,000-fold concentrated stock solution to the appropriate concentration on day 4 of differentiation. […] In studies of the protective effect of mevalonic acid, the compound was added as the mevalonolactone (Sigma Chemical Co., St. Louis, MO) at a concentration of 1 mM to the cell culture on days 4 to 6. Similarly, cholesterol was added in the form of LDL prepared according to the method of Curtiss and Edgington (Curtiss, et al., J. Biol. Chem. 257: 15213-15221 (1991)) at a final concentration of 50 μg/ml; ubiquinone (Sigma Chemical Co., St. Louis, MO) was added as Coenzyme Q-10 at a final concentration of 0.5 mM; and dolichol (Sigma Chemical Co., St. Louis, MO) was added as a dispersion in phosphatidylcholine at a final concentration of 0.5 mM (Cutts, et al., J. Cell Physiol. 139: 550-555 (1989)).
O2 --formation by HL-60 cells was assessed by the SOD-sensitive reduction of cytochrome c. Cells were suspended at 1×10^7 /ml in Krebs-Ringer Hepes buffer with 5.5 mM glucose (KRHG) and 50-100μl of cells were added to a cuvette containing 100 μM cytochrome c (type III, Sigma Chemical Co., St. Louis, MO), ±300 μg/ml SOD (Sigma Chemical Co., St. Louis, MO) in 700-750 μl KRHG. Cytochalasin b (Sigma Chemical Co., St. Louis, MO) was added to a final concentration of 5 μg/ml, and the cells were incubated at 37° C. for five minutes while a stable baseline at a wavelength of 550 nm was obtained. O2 --formation was initiated by the addition of 1 μM N-formylmethionylleucylphenylalanine (FMLP; Sigma Chemical Co., St. Louis, MO) or 1μg/ml phorbol myristate acetate (PMA; Sigma Chemical Co., St. Louis, MO). Cytochrome c reduction at 550nm was continuously monitored and maximal rate and extent of the reaction calculated.
Inhibition of protein isoprenylation can interfere with LMWG function without inhibiting overall cellular function (Maltese, supra (1990)). Since compactin inhibits at the enzymatic step preceding mevalonic acid synthesis, one should be able to reverse effects of compactin due specifically to inhibition of this pathway by addition of exogenous mevalonic acid.

Rap1 = assay: Western blot of Rap1 in membrane and cytosol fractions of HL-60 cells; details: 10 μM compactin
Procedure: Western blots were performed as described in Bokoch, et al., Cell Biol. 106: 1927-1936 (1988).
The ability of the concentrations of compactin used to inhibit endogenous HL-60 cell LMWG isoprenylation was assessed. Inhibition of Rapl isoprenylation was determined in two ways. Western blotting was used to evaluate the presence of Rap1 in cytosol or membrane fractions of compactin-treated vs. untreated cells (see FIG. 1). […] HL-60 cells were treated with ±10 μM compactin, and membrane and cytosol fractions were prepared as described in Example 1. Equal amounts of membrane protein (100 μg) and cytosol protein (70 μg), respectively,were loaded in each lane. Total membrane protein obtained in this experiment from about 3×10^8 cells was about 3 mg and cytosolic protein was about 2 mg. The samples were analyzed on 15% SDS-polyacrylamide gels (SDS-PAGE), transferred to nitrocellulose, and blotted with specific anti-Rapl antibody, R61, at 1:500 dilution. Detection was with ^125 I-goat anti-rabbit IgG and autoradiograms were exposed for 24-36 hours with intensifying screen at -70° C.

cytochrome b558 = assay: Cytochrome b558 levels in HL-60 cells by Western blot; details: 10 μM compactin
[3] = 4 μM compactin + 1 mM mevalonate
[4] = 10 μM compactin + 50 μg/ml cholesterol, n = 2
[5] = 10 μM compactin + 1 mM mevalonate

For CC[C@H](C)C(=O)O[C@H]1CCC=C2C=C[C@H](C)[C@H](CC[C@@H]3C[C@@H](O)CC(=O)O3)[C@H]21 [compactin], the “inhibition of O2- formation in response to PMA” value [1] was “loss in the ability of PMA to stimulate O2 --formation; also recorded: dose-dependent inhibition”, the “FMLP-stimulated O2- formation, Extent” value ([2]; 4 μM compactin) was 28 ± 3.5 % of control and the “FMLP-stimulated O2- formation, Rate” value ([2]; 4 μM compactin) was 43 ± 5.0 % of control. The “FMLP-stimulated O2- formation, Extent” value [2, 3] was 96 ± 8.0 % of control, the “FMLP-stimulated O2- formation, Rate” value [2, 3] was 97 ± 4.0 % of control and the “FMLP-stimulated O2- formation, Extent” value ([2]; 10 μM compactin) was 13 ± 0.4 % of control. The “FMLP-stimulated O2- formation, Rate” value ([2]; 10 μM compactin) was 19 ± 3.9 % of control, the “FMLP-stimulated O2- formation, Extent” value [2, 4] was 22 % of control and the “FMLP-stimulated O2- formation, Rate” value [2, 4] was 28 % of control. For the same compound, the “FMLP-stimulated O2- formation, Extent” value [2, 5] was 114 ± 1.6 % of control, the “FMLP-stimulated O2- formation, Rate” value [2, 5] was 115 ± 7.6 % of control and the “Rap1 membrane association after treatment” value (Rap1) was “a portion of this GTP-binding protein was still membrane associated”. The “appearance of Rap1 in the cytosolic fraction” value (Rap1) was “large amounts”, the “total Rap1 previously associated with the membrane pellet now soluble” value (Rap1; densitometry, n=3) was 60-70% and the “expression of cytochrome b558” value (cytochrome b558) was “normal”.
